Test results as given in patent publication US9850227B2 (YUHAN CORPORATION, priority 2011, dated 2017).
Where a name gives a salt, the structure may show the parent alone.

Target: T1, human 5-HT4(a) (Homo sapiens, UniProt Q13639)
T1 construct: host or cells: GeneBIAzer HTR4-CRE-bla CHO-K1 cells
Assay: Evaluation of agonistic activity in CHO-K1 cells expressing human 5-HT4(a) (GeneBIAzer HTR4-CRE-bla CHO-K1 cells, beta-lactamase fluorescence ratio, EC50 from 8 concentrations)
Type: cell-based
Outline: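 HTR4-CRE-bla CHO-K1 cells (10^4 per well, overnight in 1% FBS medium) exposed to compound for 5 h, then beta-lactamase substrate 2 h in the dark. Fluorescence ratio at 465/535 nm after 410 nm excitation; EC50 by non-linear regression over 8 concentrations.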

T1 sequence (Q13639 1-387 isoform Q13639-2): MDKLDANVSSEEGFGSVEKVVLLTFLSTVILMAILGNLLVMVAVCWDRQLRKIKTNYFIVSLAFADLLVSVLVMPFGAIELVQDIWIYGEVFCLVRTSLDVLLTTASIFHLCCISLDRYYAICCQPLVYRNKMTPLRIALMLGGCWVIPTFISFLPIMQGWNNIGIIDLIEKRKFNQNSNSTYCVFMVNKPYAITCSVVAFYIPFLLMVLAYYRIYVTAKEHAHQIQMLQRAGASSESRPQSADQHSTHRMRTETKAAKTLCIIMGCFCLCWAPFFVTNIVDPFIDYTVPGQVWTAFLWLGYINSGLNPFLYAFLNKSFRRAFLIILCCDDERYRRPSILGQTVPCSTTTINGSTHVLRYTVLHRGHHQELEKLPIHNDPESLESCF

## CCCc1cc(N2CCC[C@@H](NC)C2)nc(Nc2ccc(F)c(N)c2)n1 [Example 306, (R)-4-fluoro-N^1-{4-[3-(methylamino)piperidin-1-yl]-6-propylpyrimidin-2-yl}benzene-1,3-diamine]
  EC50: 0.015 nM

## CCCc1cc(N2CCC[C@@H](NC)C2)nc(Nc2ccc(Cl)c(N)c2)n1 [Example 307, (R)-4-chloro-N^1-{4-[3-(methylamino)piperidin-1-yl]-6-propylpyrimidin-2-yl}benzene-1,3-diamine]
  EC50: 0.004 nM

## CCCc1cc(N2CCC[C@@H](NC)C2)nc(Nc2ccc(N)c(C#N)c2)n1 [Example 308, (R)-2-amino-5-({4-[3-(methylamino)piperidin-1-yl]-6-propylpyrimidin-2-yl}amino)benzonitrile]
  EC50: 0.013 nM

## CCCc1cc(N2CCC[C@@H](NC)C2)nc(Nc2ccc(C)c(OC)c2)n1 [Example 309, (R)—N-(3-methoxy-4-methylphenyl)-4-[3-(methylamino)piperidin-1-yl]-6-propylpyrimidin-2-amine]
  EC50: 0.011 nM

## CCCc1cc(N2CCC[C@@H](NC)C2)nc(Nc2ccc(C)c(N)c2)n1 [Example 310, (R)-4-methyl-N^1-{4-[3-(methylamino)piperidin-1-yl]-6-propylpyrimidin-2-yl}benzene-1,3-diamine]
  EC50: 0.047 nM

## CCCCc1cc(N2CCC[C@@H](NC)C2)nc(Nc2ccc(C)c(C#N)c2)n1 [Example 311, (R)-5-({4-butyl-6-[3-(methylamino)piperidin-1-yl]pyrimidin-2-yl}amino)-2-methylbenzonitrile]
  EC50: 0.0026 nM

## CCCCc1cc(N2CCC[C@@H](NC)C2)nc(Nc2ccc(F)c(C#N)c2)n1 [Example 312, (R)-5-({4-butyl-6-[3-(methylamino)piperidin-1-yl]pyrimidin-2-yl}amino)-2-fluorobenzonitrile]
  EC50: 0.014 nM

## CCCCc1cc(N2CCC[C@@H](NC)C2)nc(Nc2cc(N)cc(C(F)(F)F)c2)n1 [Example 313, (R)—N^1-{4-butyl-6-[3-(methylamino)piperidin-1-yl]pyrimidin-2-yl}-5-(trifluoromethyl)benzene-1,3-diamine]
  EC50: 0.005 nM

## CCCCc1cc(N2CCC[C@@H](NC)C2)nc(Nc2ccc(N)c(C(F)(F)F)c2)n1 [Example 314, (R)—N^1-{4-butyl-6-[3-(methylamino)piperidin-1-yl]pyrimidin-2-yl}-3-(trifluoromethyl)benzene-1,4-diamine]
  EC50: 0.0019 nM

## CCCCc1cc(N2CCC[C@@H](NC)C2)nc(Nc2cc(N)cc(C#N)c2)n1 [Example 315, (R)-3-amino-5-({4-butyl-6-[3-(methylamino)piperidin-1-yl]pyrimidin-2-yl}amino)benzonitrile]
  EC50: 0.0012 nM

## CCCCc1cc(N2CCC[C@@H](NC)C2)nc(Nc2ccc(N)c(C#N)c2)n1 [Example 316, (R)-2-amino-5-({4-butyl-6-[3-(methylamino)piperidin-1-yl]pyrimidin-2-yl}amino)benzonitrile]
  EC50: 0.0067 nM

## CCCCc1cc(N2CCC[C@@H](NC)C2)nc(Nc2ccc(F)c(N)c2)n1 [Example 317, (R)—N^1-{4-butyl-6-[3-(methylamino)piperidin-1-yl]pyrimidin-2-yl}-4-fluorobenzene-1,3-diamine]
  EC50: 0.0066 nM

## CCCCc1cc(N2CCC[C@@H](NC)C2)nc(Nc2ccc(C)c(OC)c2)n1 [Example 318, (R)-4-butyl-N-(3-methoxy-4-methylphenyl)-6-[3-(methylamino)piperidin-1-yl]pyrimidin-2-amine]
  EC50: 0.025 nM

## CCCCc1cc(N2CCC[C@@H](NC)C2)nc(Nc2ccc(C)c(N)c2)n1 [Example 319, (R)—N^1-{4-butyl-6-[3-(methylamino)piperidin-1-yl]pyrimidin-2-yl}-4-methylbenzene-1,3-diamine]
  EC50: 0.0047 nM

## CCCCc1cc(N2CCC[C@@H](NC)C2)nc(Nc2ccc(F)c(C(F)(F)F)c2)n1 [Example 320, (R)-4-butyl-N-[4-fluoro-3-(trifluoromethyl)phenyl]-6-[3-(methylamino)piperidin-1-yl]pyrimidin-2-amine]
  EC50: 0.018 nM

## CCCc1cc(N2CCC[C@@H](NC)C2)nc(Nc2ccc(N)c([N+](=O)[O-])c2)n1 [Example 321, (R)—N^1-{4-[3-(methylamino)piperidin-1-yl]-6-propylpyrimidin-2-yl}-3-nitrobenzene-1,4-diamine dihydrochloride]
  EC50: 0.0031 nM

## CCCc1cc(N2CCC[C@@H](NC)C2)nc(Nc2ccc(C)c(C)c2)n1 [Example 322, (R)—N-(3,4-dimethylphenyl)-4-[3-(methylamino)piperidin-1-yl]-6-propylpyrimidin-2-amine]
  EC50: 0.243 nM

## CCCc1cc(N2CCC[C@@H](NC)C2)nc(Nc2ccc(C)c(F)c2)n1 [Example 323, (R)—N-(3-fluoro-4-methylphenyl)-4-[3-(methylamino)piperidin-1-yl]-6-propylpyrimidin-2-amine]
  EC50: 0.416 nM

## CCCc1cc(N2CCC[C@@H](NC)C2)nc(Nc2ccc(C)c(C(F)(F)F)c2)n1 [Example 324, (R)—N-[4-methyl-3-(trifluoromethyl)phenyl]-4-[3-(methylamino)piperidin-1-yl]-6-propylpyrimidin-2-amine]
  EC50: 0.0087 nM

## CCCCc1cc(N2CCC[C@@H](NC)C2)nc(Nc2ccc(N)c([N+](=O)[O-])c2)n1 [Example 328, (R)—N^1-{4-butyl-6-[3-(methylamino)piperidin-1-yl]pyrimidin-2-yl}-3-nitrobenzene-1,4-diamine dihydrochloride]
  EC50: 0.0029 nM

## CCCCc1cc(N2CCC[C@@H](NC)C2)nc(Nc2cccc(C#N)c2)n1 [Example 329, (R)-3-({4-butyl-6-[3-(methylamino)piperidin-1-yl]pyrimidin-2-yl}amino)benzonitrile]
  EC50: 0.054 nM

## CCCCc1cc(N2CCC[C@@H](NC)C2)nc(Nc2ccc(C)c(C)c2)n1 [Example 330, (R)-4-butyl-N-(3,4-dimethylphenyl)-6-[3-(methylamino)piperidin-1-yl]pyrimidin-2-amine]
  EC50: 0.086 nM

## CCCCc1cc(N2CCC[C@@H](NC)C2)nc(Nc2ccc(C)c(F)c2)n1 [Example 331, (R)-4-butyl-N-(3-fluoro-4-methylphenyl)-6-[3-(methylamino)piperidin-1-yl]pyrimidin-2-amine]
  EC50: 0.218 nM

## CCCCc1cc(N2CCC[C@@H](NC)C2)nc(Nc2ccc(C)c(C(F)(F)F)c2)n1 [Example 332, (R)-4-butyl-N-[4-methyl-3-(trifluoromethyl)phenyl]-6-[3-(methylamino)piperidin-1-yl]pyrimidin-2-amine]
  EC50: 0.017 nM

## CCCCc1cc(N2CCC[C@@H](NC)C2)nc(Nc2ccc(OC)c(N)c2)n1 [Example 333, (R)—N^1-{4-butyl-6-[3-(methylamino)piperidin-1-yl]pyrimidin-2-yl}-4-methoxybenzene-1,3-diamine]
  EC50: 0.132 nM

## CCCCc1cc(N2CCC[C@@H](N)C2)nc(Nc2ccc(N)c([N+](=O)[O-])c2)n1 [Example 337, (R)—N^1-[4-(3-aminopiperidin-1-yl)-6-butylpyrimidin-2-yl]-3-nitrobenzene-1,4-diamine dihydrochloride]
  EC50: 0.006 nM

## CCCCc1cc(N2CCC[C@@H](N)C2)nc(Nc2ccc(F)c([N+](=O)[O-])c2)n1 [Example 338, (R)-4-(3-aminopiperidin-1-yl)-6-butyl-N-(4-fluoro-3-nitrophenyl)pyrimidin-2-amine]
  EC50: 0.014 nM
